From US20230265151A1, “GIP/GLP1 CO-AGONIST COMPOUNDS” (priority 2020, published 2023)
Read-outs that look alike come from different tables or passages of the source.

Columns and labels:
Type in all cases: cell-based
[1] = molecular target: T1, hGIPR (Homo sapiens, UniProt P48546); assay: Functional cAMP formation (HTRF) in HEK-293 clonal cells expressing hGIPR, 0.1% bovine casein, without or with 1.0% human serum albumin; settings: for Emax: percent of maximal response to GIP(1-42)NH2; for EC50: cAMP
T1 construct: expressed in transfected cells
T1 sequence (P48546 22-466): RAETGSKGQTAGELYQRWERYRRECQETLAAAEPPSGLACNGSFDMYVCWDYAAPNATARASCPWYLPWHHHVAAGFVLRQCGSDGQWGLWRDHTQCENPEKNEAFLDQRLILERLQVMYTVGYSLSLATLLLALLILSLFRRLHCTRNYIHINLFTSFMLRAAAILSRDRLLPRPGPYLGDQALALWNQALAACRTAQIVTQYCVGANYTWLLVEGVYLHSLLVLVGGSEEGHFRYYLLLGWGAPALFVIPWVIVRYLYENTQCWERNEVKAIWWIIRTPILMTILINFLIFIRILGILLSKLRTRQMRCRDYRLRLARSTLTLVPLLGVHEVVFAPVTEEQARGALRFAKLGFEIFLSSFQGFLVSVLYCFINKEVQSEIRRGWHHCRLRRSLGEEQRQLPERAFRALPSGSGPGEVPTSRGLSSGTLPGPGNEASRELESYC
In short: (§1)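 Readings of the HTRF 665/620 nm ratio, which falls as cAMP rises, were converted to nM cAMP using a standard curve after 30 min peptide exposure at 37° C.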

[2] = molecular target: T2, hGCGR (Homo sapiens, UniProt P47871); assay: Functional cAMP formation (HTRF) in HEK-293 clonal cells expressing hGCGR, 0.1% bovine casein, without or with 1.0% human serum albumin; settings: cAMP, 37° C.
T2 construct: expressed in transfected cells
T2 sequence (P47871 26-477): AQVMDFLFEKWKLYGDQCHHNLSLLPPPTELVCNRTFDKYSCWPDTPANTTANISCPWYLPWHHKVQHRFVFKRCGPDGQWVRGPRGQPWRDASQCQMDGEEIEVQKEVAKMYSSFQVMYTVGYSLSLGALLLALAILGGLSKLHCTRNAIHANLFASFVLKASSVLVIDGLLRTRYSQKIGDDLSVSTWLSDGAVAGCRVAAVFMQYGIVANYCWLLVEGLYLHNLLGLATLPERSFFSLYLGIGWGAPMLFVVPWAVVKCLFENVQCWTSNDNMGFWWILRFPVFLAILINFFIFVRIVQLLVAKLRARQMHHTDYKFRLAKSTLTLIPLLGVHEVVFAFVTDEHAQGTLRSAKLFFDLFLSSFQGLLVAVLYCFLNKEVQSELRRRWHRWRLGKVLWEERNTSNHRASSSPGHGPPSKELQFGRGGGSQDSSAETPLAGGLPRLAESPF
In short: as §1

[3] = molecular target: hGLP-1R (Homo sapiens, UniProt P43220); assay: Functional cAMP formation (HTRF) in HEK-293 clonal cells expressing hGLP-1R, 0.1% bovine casein, without or with 1.0% human serum albumin; parameters: expressed in transfected cells; settings: for Emax: percent of maximal response to GLP-1(7-36)NH2; for EC50: cAMP, 0.1% bovine casein (no human serum albumin), geometric mean
hGLP-1R, sequence (P43220 24-463): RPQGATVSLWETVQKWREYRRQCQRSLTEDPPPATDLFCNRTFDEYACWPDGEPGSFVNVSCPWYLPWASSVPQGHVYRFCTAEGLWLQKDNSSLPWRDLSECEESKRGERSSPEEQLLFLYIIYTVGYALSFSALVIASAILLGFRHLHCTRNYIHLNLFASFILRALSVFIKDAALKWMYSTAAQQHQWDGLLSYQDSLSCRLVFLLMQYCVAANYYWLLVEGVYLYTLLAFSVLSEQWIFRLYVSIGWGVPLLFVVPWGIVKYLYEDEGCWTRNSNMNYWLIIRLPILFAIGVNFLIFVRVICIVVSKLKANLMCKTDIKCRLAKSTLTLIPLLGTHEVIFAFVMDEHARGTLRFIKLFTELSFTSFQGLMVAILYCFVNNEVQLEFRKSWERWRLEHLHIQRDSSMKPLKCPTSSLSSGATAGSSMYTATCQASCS
In short: as §1

[4] = HEK293, read-out: hGIPR Emax, % ± SEM, cAMP, 37° C., 0.1% bovine casein and 1.0% human serum albumin
[5] = HEK293, read-out: hGIPR Emax, % ± SEM, cAMP, 37° C., 0.1% bovine casein, arithmetic mean
[6] = hGIPR EC50, nM (SEM, n), 37° C., 0.1% bovine casein (no human serum albumin), geometric mean
[7] = hGCGR EC50, nM (SEM, n), 0.1% bovine casein (no human serum albumin), geometric mean
[8] = hGCGR EC50, nM (SEM, n), 0.1% bovine casein and 1.0% human serum albumin, geometric mean (SEM, n)
[9] = HEK293, read-out: hGLP-1R Emax, % ± SEM, cAMP, 37° C., 0.1% bovine casein and 1.0% human serum albumin
[10] = hGLP-1R EC50, nM (SEM, n), 37° C.

CC[C@H](C)[C@H](NC(=O)[C@H](CCCN)NC(=O)[C@H](CC(=O)O)NC(=O)[C@H](CC(C)C)NC(=O)[C@](C)(CC(C)C)NC(=O)[C@@H](NC(=O)C(C)(C)NC(=O)[C@@H](NC(=O)[C@H](CC(=O)O)NC(=O)[C@H](CO)NC(=O)[C@@H](NC(=O)[C@](C)(Cc1ccccc1F)NC(=O)[C@@H](NC(=O)CNC(=O)[C@H](CCC(=O)O)NC(=O)C(C)(C)NC(=O)[C@@H](N)Cc1ccc(O)cc1)[C@@H](C)O)[C@@H](C)O)C(C)C)[C@@H](C)CC)C(=O)N[C@@H](C)C(=O)N[C@@H](CCC(N)=O)C(=O)NC(C)(C)C(=O)N[C@@H](CCC(=O)O)C(=O)N[C@@H](Cc1ccccc1)C(=O)N[C@H](C(=O)N[C@@H](CCCCNC(=O)COCCOCCNC(=O)COCCOCCNC(=O)COCCOCCNC(=O)CC[C@H](NC(=O)CCCCCCCCCCCCC(=O)O)C(=O)O)C(=O)N[C@@](C)(Cc1ccc(O)cc1)C(=O)N[C@@H](CC(C)C)C(=O)N[C@H](C(=O)N[C@@H](CCCCNC(=O)COCCOCCNC(=O)COCCOCCNC(=O)COCCOCCNC(=O)CC[C@H](NC(=O)CCCCCCCCCCCCC(=O)O)C(=O)O)C(=O)NCC(=O)NCC(=O)N1CCC[C@H]1C(=O)N[C@@H](CO)C(=O)N[C@@H](CO)C(=O)NCC(=O)N[C@@H](C)C(=O)N1CCC[C@H]1C(=O)N1CCC[C@H]1C(=O)N1CCC[C@H]1C(=O)N[C@@H](CO)C(N)=O)[C@@H](C)CC)[C@@H](C)CC [Example 344]
Emax ([1]; HEK293, cAMP, 37° C., 0.1% bovine casein and 1.0% human serum albumin, read-out: hGIPR Emax, % ± SEM): 87.3% | Emax ([1]; HEK293, cAMP, 37° C., 0.1% bovine casein, arithmetic mean, read-out: hGIPR Emax, % ± SEM): 97.9% | EC50 ([1]; 37° C., 0.1% bovine casein (no human serum albumin), geometric mean, read-out: hGIPR EC50, nM (SEM, n)): 0.0174 nM | EC50 ([1]; 37° C., 0.1% bovine casein and 1.0% human serum albumin, geometric mean (SEM, n), read-out: hGIPR EC50, nM (SEM, n)): 6.78 nM | EC50 ([2]; 0.1% bovine casein (no human serum albumin), geometric mean, read-out: hGCGR EC50, nM (SEM, n)): > 9950 nM | EC50 ([2]; 0.1% bovine casein and 1.0% human serum albumin, geometric mean (SEM, n), read-out: hGCGR EC50, nM (SEM, n)): > 9950 nM | Emax ([3]; HEK293, cAMP, 37° C., 0.1% bovine casein and 1.0% human serum albumin, read-out: hGLP-1R Emax, % ± SEM): 96.5% | Emax ([3]; HEK293, cAMP, 37° C., 0.1% bovine casein, arithmetic mean, read-out: hGLP-1R Emax, % ± SEM): 100% | EC50 ([3]; 37° C., read-out: hGLP-1R EC50, nM (SEM, n)): 0.336 nM

CC[C@H](C)[C@H](NC(=O)[C@H](CCCN)NC(=O)[C@H](CC(=O)O)NC(=O)[C@H](CC(C)C)NC(=O)[C@](C)(CC(C)C)NC(=O)[C@@H](NC(=O)C(C)(C)NC(=O)[C@H](Cc1ccncc1)NC(=O)[C@H](CC(=O)O)NC(=O)[C@H](CO)NC(=O)[C@@H](NC(=O)[C@](C)(Cc1ccccc1F)NC(=O)[C@@H](NC(=O)CNC(=O)[C@H](CCC(=O)O)NC(=O)C(C)(C)NC(=O)[C@@H](N)Cc1ccc(O)cc1)[C@@H](C)O)[C@@H](C)O)[C@@H](C)CC)C(=O)N[C@@H](C)C(=O)N[C@@H](CCC(N)=O)C(=O)NC(C)(C)C(=O)N[C@@H](CCC(=O)O)C(=O)N[C@@H](Cc1ccccc1)C(=O)N[C@H](C(=O)N[C@@H](CCCCNC(=O)COCCOCCNC(=O)COCCOCCNC(=O)COCCOCCNC(=O)CC[C@H](NC(=O)CCCCCCCCCOc1ccc(C(=O)O)cc1)C(=O)O)C(=O)N[C@@](C)(Cc1ccc(O)cc1)C(=O)N[C@@H](CC(C)C)C(=O)N[C@H](C(=O)N[C@@H](CCCCNC(=O)COCCOCCNC(=O)COCCOCCNC(=O)COCCOCCNC(=O)CC[C@H](NC(=O)CCCCCCCCCOc1ccc(C(=O)O)cc1)C(=O)O)C(=O)NCC(=O)NCC(=O)N1CCC[C@H]1C(=O)N[C@@H](CO)C(=O)N[C@@H](CO)C(=O)NCC(=O)N[C@@H](C)C(=O)N1CCC[C@H]1C(=O)N1CCC[C@H]1C(=O)N1CCC[C@H]1C(=O)N[C@@H](CO)C(N)=O)[C@@H](C)CC)[C@@H](C)CC [Example 345]
Emax [1, 4]: 86.8% | Emax [1, 5]: 98.9% | EC50 [1, 6]: 0.0147 nM | EC50 [2, 7]: > 9950 nM | EC50 [2, 8]: > 9950 nM | Emax [3, 9]: 110% | Emax ([3]; HEK293, read-out: hGLP-1R Emax, % ± SEM, cAMP, 37° C., 0.1% bovine casein, arithmetic mean): 105% | EC50 [3, 10]: 0.285 nM

CC[C@H](C)[C@H](NC(=O)[C@H](CCCN)NC(=O)[C@H](CC(=O)O)NC(=O)[C@H](CC(C)C)NC(=O)[C@](C)(CC(C)C)NC(=O)[C@@H](NC(=O)C(C)(C)NC(=O)[C@H](Cc1ccc(O)cc1)NC(=O)[C@H](CC(=O)O)NC(=O)[C@H](CO)NC(=O)[C@@H](NC(=O)[C@](C)(Cc1ccccc1F)NC(=O)[C@@H](NC(=O)CNC(=O)[C@H](CCC(=O)O)NC(=O)C(C)(C)NC(=O)[C@@H](N)Cc1ccc(O)cc1)[C@@H](C)O)[C@@H](C)O)[C@@H](C)CC)C(=O)N[C@@H](C)C(=O)N[C@@H](CCC(N)=O)C(=O)NC(C)(C)C(=O)N[C@@H](CCC(=O)O)C(=O)N[C@@H](Cc1ccccc1)C(=O)N[C@H](C(=O)N[C@@H](CCCCNC(=O)COCCOCCNC(=O)COCCOCCNC(=O)COCCOCCNC(=O)CC[C@H](NC(=O)CCCCCCCCCOc1ccc(C(=O)O)cc1)C(=O)O)C(=O)N[C@@](C)(Cc1ccc(O)cc1)C(=O)N[C@@H](CC(C)C)C(=O)N[C@H](C(=O)N[C@@H](CCCCNC(=O)COCCOCCNC(=O)COCCOCCNC(=O)COCCOCCNC(=O)CC[C@H](NC(=O)CCCCCCCCCOc1ccc(C(=O)O)cc1)C(=O)O)C(=O)NCC(=O)NCC(=O)N1CCC[C@H]1C(=O)N[C@@H](CO)C(=O)N[C@@H](CO)C(=O)NCC(=O)N[C@@H](C)C(=O)N1CCC[C@H]1C(=O)N1CCC[C@H]1C(=O)N1CCC[C@H]1C(=O)N[C@@H](CO)C(N)=O)[C@@H](C)CC)[C@@H](C)CC [Example 346]
Emax [1, 4]: 83.9% | Emax [1, 5]: 96.6% | EC50 [1, 6]: 0.0194 nM | EC50 [2, 7]: > 9950 nM | EC50 [2, 8]: > 9950 nM | Emax [3, 9]: 97.7% | EC50 [3, 10]: 0.329 nM

CC[C@H](C)[C@H](NC(=O)[C@H](CCCN)NC(=O)[C@H](CC(=O)O)NC(=O)[C@H](CC(C)C)NC(=O)[C@](C)(CC(C)C)NC(=O)[C@@H](NC(=O)C(C)(C)NC(=O)[C@@H](NC(=O)[C@H](CC(=O)O)NC(=O)[C@H](CO)NC(=O)[C@@H](NC(=O)[C@](C)(Cc1ccccc1F)NC(=O)[C@@H](NC(=O)CNC(=O)[C@H](CCC(=O)O)NC(=O)C(C)(C)NC(=O)[C@@H](N)Cc1ccc(O)cc1)[C@@H](C)O)[C@@H](C)O)C(C)C)[C@@H](C)CC)C(=O)N[C@@H](C)C(=O)N[C@@H](CCC(N)=O)C(=O)NC(C)(C)C(=O)N[C@@H](CCC(=O)O)C(=O)N[C@@H](Cc1ccccc1)C(=O)N[C@H](C(=O)N[C@@H](CCCCNC(=O)COCCOCCNC(=O)COCCOCCNC(=O)COCCOCCNC(=O)CC[C@H](NC(=O)CCCCCCCCCOc1ccc(C(=O)O)cc1)C(=O)O)C(=O)N[C@@](C)(Cc1ccc(O)cc1)C(=O)N[C@@H](CC(C)C)C(=O)N[C@H](C(=O)N[C@@H](CCCCNC(=O)COCCOCCNC(=O)COCCOCCNC(=O)COCCOCCNC(=O)CC[C@H](NC(=O)CCCCCCCCCOc1ccc(C(=O)O)cc1)C(=O)O)C(=O)NCC(=O)NCC(=O)N1CCC[C@H]1C(=O)N[C@@H](CO)C(=O)N[C@@H](CO)C(=O)NCC(=O)N[C@@H](C)C(=O)N1CCC[C@H]1C(=O)N1CCC[C@H]1C(=O)N1CCC[C@H]1C(=O)N[C@@H](CO)C(N)=O)[C@@H](C)CC)[C@@H](C)CC [Example 347]
Emax [1, 4]: 84.6% | Emax [1, 5]: 98% | EC50 [1, 6]: 0.0259 nM | EC50 [2, 7]: > 9950 nM | EC50 [2, 8]: > 9950 nM | EC50 [3, 10]: 0.356 nM
